Data on 1 compound can be found in US5102877A, “1-azabicyclo[3.2.0]hept-2-ene-2-carboxylic acid compounds” (Fujisawa Pharmaceutical Co., Ltd., priority 1989, dated 1992).

Where only a bound is given, the exact number is not on record here.

This experiment deals with S. aureus 6. The experiment in a line: in vitro Antimicrobial Activity, two-fold agar-plate dilution method. As to conditions: Staphylococcus aureus, heart infusion agar, 10^6 viable cells per ml, 37° C. for 20 hours, read-out: minimal inhibitory concentration (MIC). The format is cell-based. As for the experimental part:
in vitro Antimicrobial Activity was determined by the two-fold agar-plate dilution method as described below.
One loopful of an overnight culture of a test strain in Trypticase-soy broth (10^6 viable cells per ml) was streaked on heart infusion agar (HI-agar) containing graded concentrations of the test compound, and the minimal inhibitory concentration (MIC) was expressed in terms of μg/ml after incubation at 37° C. for 20 hours.

On to `C[C@@H](O)[C@H]1C(=O)N2C(C(=O)O)=C(C3CCN(C=N)C3)C[C@H]12` (stereo partly drawn) [Example 12, (5R,6S)-3-(1-formimidoylpyrrolidin-3-yl)-6-[(1R)-1-hydroxyethyl]-7-oxo-1-azabicyclo[3.2.0]hept-2-ene-2-carboxylic acid], for which the MIC was at most 0.025 µg/mL.
